# In publication PMC5036131, “Fragment-based discovery of a new family of non-peptidic small-molecule cyclophilin inhibitors with potent antiviral activities” (Nature Communications, 2016):
# Where two headings read alike, the source gives them in different places.
# How the values were obtained:
# CypB = molecular target: T1, CypB (Homo sapiens, UniProt P23284); experiment: biochemical; format: biochemical; conditions: PPIase enzyme assay, 20 °C, mean±s.d.; read-out: CypB IC50
# T1 construct: hexahistidine tag (His-Tag) (C); made in house; host or cells: E. coli C41(DE3)
# T1 sequence (P23284 34-216): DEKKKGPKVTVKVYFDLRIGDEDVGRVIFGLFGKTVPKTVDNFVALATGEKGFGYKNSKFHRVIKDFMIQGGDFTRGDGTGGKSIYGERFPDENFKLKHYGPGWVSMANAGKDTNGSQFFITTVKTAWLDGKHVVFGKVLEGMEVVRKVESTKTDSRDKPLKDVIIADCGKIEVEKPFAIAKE
# Method: CypA and CypB proteins carrying a hexahistidine tag (His-Tag) at their carboxy terminus were expressed in E. coli and purified. Briefly, cultures of C41(DE3) cells were grown at 37 °C for 1 h until the culture reached an OD of 0.6 at 600 nm and then induced with 1 mM isopropyl-β-D-thiogalactopyranoside for 4 h at 37 °C (CypA) or overnight at 22 °C (CypB). Cell pellets were resuspended in a lysis buffer 20 mM NaH2PO4 pH 7.8, 300 mM NaCl, 7 mM β-mercaptoethanol, 1 mg ml^−1 lysozyme, 0.1 U μl^−1 desoxyribonuclease and complete protease inhibitor tablets (Roche Diagnostics Corporation, Indianapolis, Indiana). […] The bound protein was eluted in 1 ml fractions with a buffer composed of 20 mM NaH2PO4 pH 7.8, 300 mM NaCl, 250 mM imidazole, 7 mM β-mercaptoethanol and 10% glycerol, monitored by the Bradford colorimetric assay. The purity of each cyclophilin was determined by Coomassie-stained SDS–PAGE analysis.
# HCV genotype 1b replicon = experiment: microbe, parasite or virus in culture; format: cell-based, hepatitis C virus
# Kinetic solubility = format: physicochemical; conditions: target concentration 100 μM, 24 h; for Solubility HCl (pH 1.0): 0.1 N HCl pH 1.0
# Method: The solutions were incubated at room temperature with shaking for 24 h and were then centrifuged, and the recovered supernatants assayed by HPLC with diode array ultraviolet/visible detection. Solubility values were calculated by comparing the amount (by chromatographic peak area) of compound detected in the defined test solution with an unextracted standard. Relative chemical stabilities of compounds after 24 h incubation in PBS at 37 °C were also determined. The solubility and chemical stability of a quality-control compound (amprenavir) were determined in parallel.
# [1] = Human plasma protein binding, equilibrium dialysis; format: in vitro ADME; conditions: 2 μM, 37 °C, 3 h dialysis
# Method: (§1) The extent of binding to pooled human plasma and to cell culture medium containing 10% fetal bovine serum was determined by equilibrium dialysis against isotonic phosphate buffer. Equilibrium dialysis was conducted at 37 °C with initial concentrations of compounds of 2 μM in the non-buffer matrix. A 3 h dialysis time was used for equilibration. Following dialysis, plasma samples were drained into pre-weighed polypropylene tubes containing buffer and buffer samples were drained into pre-weighed tubes containing blank plasma. Post-dialysis plasma and buffer weights were measured and recorded for concentration and recovery calculations. After precipitation and centrifugation, LC-MS/MS assays were used for the analysis of each of the protein/phosphate buffer-mixed matrices. Relative binding to human plasma and cell culture medium was determined in a similar manner, except that the two matrices were dialysed against each other directly and the compound was spiked into both matrices. After equilibration, the plasma sample was diluted with blank cell culture medium and the cell culture medium diluted with blank plasma.
# [2] = Cell culture medium binding, equilibrium dialysis; format: in vitro ADME; conditions: 2 μM, 37 °C, 3 h dialysis
# Method: as §1
# CYP2C8 = molecular target: T2, CYP2C8 (Homo sapiens, UniProt P10632); experiment: Metabolism by recombinant human cytochrome P450, CYP2C8; format: in vitro ADME; conditions: recombinant enzyme
# T2 sequence (P10632 1-490): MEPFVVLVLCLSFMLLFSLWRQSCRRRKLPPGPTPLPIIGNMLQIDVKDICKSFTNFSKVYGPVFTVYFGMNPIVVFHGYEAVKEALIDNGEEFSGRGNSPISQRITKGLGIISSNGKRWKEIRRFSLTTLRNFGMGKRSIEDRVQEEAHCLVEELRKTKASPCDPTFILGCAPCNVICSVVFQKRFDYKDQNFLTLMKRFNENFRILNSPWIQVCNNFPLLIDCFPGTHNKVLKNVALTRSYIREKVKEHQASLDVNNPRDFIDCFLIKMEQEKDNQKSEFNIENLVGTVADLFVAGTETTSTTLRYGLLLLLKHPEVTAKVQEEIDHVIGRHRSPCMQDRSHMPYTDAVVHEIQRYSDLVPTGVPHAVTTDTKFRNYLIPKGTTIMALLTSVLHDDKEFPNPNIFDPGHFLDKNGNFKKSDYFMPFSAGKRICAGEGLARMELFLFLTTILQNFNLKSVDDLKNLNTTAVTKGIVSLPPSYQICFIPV
# Method: (§2) […] of compound was incubated with individual bacterially expressed recombinant human cytochromes P450 co-expressed with human NADPH cytochrome P450 reductase. […] Enzyme-selective positive control substrates were tested in parallel.
# CYP2C9 = CYP2C9 (Homo sapiens, UniProt P11712); experiment: Metabolism by recombinant human cytochrome P450, CYP2C9; format: in vitro ADME; conditions: recombinant enzyme
# Chain of CYP2C9 (P11712 whole entry): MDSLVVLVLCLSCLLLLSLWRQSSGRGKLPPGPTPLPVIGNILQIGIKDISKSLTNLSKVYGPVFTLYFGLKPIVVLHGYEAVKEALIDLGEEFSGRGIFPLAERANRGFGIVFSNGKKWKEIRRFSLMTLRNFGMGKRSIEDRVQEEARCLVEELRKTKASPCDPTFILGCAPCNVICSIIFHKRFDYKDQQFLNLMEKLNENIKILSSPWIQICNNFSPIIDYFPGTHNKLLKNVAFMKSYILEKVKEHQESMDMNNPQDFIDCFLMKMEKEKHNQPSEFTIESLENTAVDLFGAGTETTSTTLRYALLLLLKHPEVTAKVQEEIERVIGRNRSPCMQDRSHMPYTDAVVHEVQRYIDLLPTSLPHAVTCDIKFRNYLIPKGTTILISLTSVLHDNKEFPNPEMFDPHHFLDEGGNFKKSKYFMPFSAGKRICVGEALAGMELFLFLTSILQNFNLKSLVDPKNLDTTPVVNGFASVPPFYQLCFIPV
# Method: as §2
# CYP2D6 [3] = molecular target: T3, CYP2D6 (Homo sapiens, UniProt P10635); experiment: Metabolism by recombinant human cytochrome P450, CYP2D6; format: in vitro ADME; conditions: recombinant enzyme
# T3 sequence (P10635 whole entry): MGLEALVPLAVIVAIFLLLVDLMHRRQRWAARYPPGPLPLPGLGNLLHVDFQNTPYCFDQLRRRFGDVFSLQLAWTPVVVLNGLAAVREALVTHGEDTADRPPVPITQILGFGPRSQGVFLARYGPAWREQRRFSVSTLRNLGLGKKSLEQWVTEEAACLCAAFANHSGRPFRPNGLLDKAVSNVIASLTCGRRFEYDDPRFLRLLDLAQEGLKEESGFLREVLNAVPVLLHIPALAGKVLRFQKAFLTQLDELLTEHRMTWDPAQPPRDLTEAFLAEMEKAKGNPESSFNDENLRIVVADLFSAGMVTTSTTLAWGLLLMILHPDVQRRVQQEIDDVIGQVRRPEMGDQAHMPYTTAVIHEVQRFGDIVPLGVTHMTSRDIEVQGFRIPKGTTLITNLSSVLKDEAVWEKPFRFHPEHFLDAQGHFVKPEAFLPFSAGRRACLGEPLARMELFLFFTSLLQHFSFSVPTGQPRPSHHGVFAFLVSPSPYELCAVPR
# Method: as §2
# CYP3A4 = molecular target: T4, CYP3A4 (Homo sapiens, UniProt P08684); experiment: Cytochrome P450 enzyme inhibition assay, CYP3A4; format: in vitro ADME; conditions: human hepatic microsomal fractions, up to 25 μM
# T4 construct: incubated with human hepatic microsomal fractions and NADPH; from tissue; host or cells: human hepatic microsomal fractions
# T4 sequence (P08684 2-503): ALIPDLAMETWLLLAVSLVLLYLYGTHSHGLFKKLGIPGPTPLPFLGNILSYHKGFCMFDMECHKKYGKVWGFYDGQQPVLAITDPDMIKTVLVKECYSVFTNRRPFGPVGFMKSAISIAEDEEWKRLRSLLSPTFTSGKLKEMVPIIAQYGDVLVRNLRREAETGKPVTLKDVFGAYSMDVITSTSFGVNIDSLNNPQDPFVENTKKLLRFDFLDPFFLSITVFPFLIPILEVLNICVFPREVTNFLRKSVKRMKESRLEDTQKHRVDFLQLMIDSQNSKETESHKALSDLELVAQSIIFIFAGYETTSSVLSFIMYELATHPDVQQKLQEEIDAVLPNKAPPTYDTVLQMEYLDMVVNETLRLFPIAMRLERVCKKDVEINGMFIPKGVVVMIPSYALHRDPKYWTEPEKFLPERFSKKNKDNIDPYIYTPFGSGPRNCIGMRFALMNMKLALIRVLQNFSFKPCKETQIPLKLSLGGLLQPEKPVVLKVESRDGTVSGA
# Method: (§3) Up to 25 μM of compounds 29 and 30 was incubated with human hepatic microsomal fractions and NADPH in the presence of individual probe substrates. All assays were designed so that conditions were linear with respect to time and protein concentration. Substrates were present at concentrations equal to or lower than their respective Km values. Enzyme selective products were determined by fluorometry (ethoxyresorufin O-deethylase) or by specific LC-MS/MS assays. Relative enzyme activities were determined by comparison with those assayed with DMSO vehicle instead of inhibitor. IC50 values were calculated by nonlinear curve fitting using a sigmoidal model. Positive control inhibitors for each enzyme were tested in parallel.
# CYP2D6 [4] = molecular target: T3, CYP2D6; experiment: Cytochrome P450 enzyme inhibition assay, CYP2D6; format: in vitro ADME; design: incubated with human hepatic microsomal fractions and NADPH; from tissue; host or cells: human hepatic microsomal fractions; conditions: human hepatic microsomal fractions, up to 25 μM
# Method: as §3
compound,measurement,setting,value
CSCCC(NC(=O)NCc1ccc(N)cc1)C(=O)N1CCCC1c1ccccc1SC.O=C(O)C(F)(F)F (centres unmarked) [Compound 30],IC50,CypB,1900 ± 1500 nM
same,EC50,"HCV genotype 1b replicon; Huh7 cells, 3 days, HCV RNA, read-out: HCV genotype 1b replicon EC50",1400 ± 1200 nM
same,EC50,"HCV genotype 1b replicon; wild-type genotype 1b replicon, comparison with mutated replicons (Table 3), read-out: EC50 HCV (WT) subgenomic replicon",2100 ± 90 nM
same,Solubility HCl (pH 1.0),Kinetic solubility,> 100
same,Solubility HCl (pH 1.0),Kinetic solubility; listed as compound 30,very soluble
same,Solubility PBS (pH 7.4),Kinetic solubility,> 100
same,Solubility PBS (pH 7.4),Kinetic solubility; listed as compound 30,very soluble
same,Human plasma binding Bound,[1],85.1%
same,Human plasma binding Unbound,[1],14.9%
same,Cell culture medium (CCM) binding Unbound,[2],23.2%
same,Rate of metabolism by human cytochrome P450 CYP2C8,CYP2C8,0.56 pmol/pmol P450/min
same,Rate of metabolism by human cytochrome P450 CYP2C9,CYP2C9,0.49 pmol/pmol P450/min
same,Rate of metabolism by human cytochrome P450 CYD2D6,CYP2D6 [3],1.24 pmol/pmol P450/min
same,IC50,CYP3A4,600 nM
same,"Inhibition of cytochrome P450 activity, IC50 CYP3A4",CYP3A4,potent inhibitors
same,"Inhibition of cytochrome P450 activity, IC50 CYD2D6",CYP2D6 [4],Neither compound 29 nor compound 30 significantly inhibited
same,IC50,"CYP2D6 [4]; read-out: Inhibition of cytochrome P450 activity, IC50 CYD2D6",> 25000 nM
